Values quoted from earlier work in patent US10647856B2, “Mold resistant formable cork” (THE BOEING COMPANY, priority 2016, dated 2020).
Converted amounts (≈) assume the structure as drawn.

O=[N+]([O-])c1ccc(O)cc1 [para-nitrophenol]
water solubility: 16 g/L (≈ 115 mM)
